Data on 6 compounds can be found in patent US20220279826A1, “OFF-FLAVOR SUPPRESSING AGENT” (AJINOMOTO CO., INC., priority 2019, published 2022).

Assay [1] in a line: Sensory evaluation in Japanese noodle soup base solution with potassium chloride (0.1 g) (Experimental Example 4). The conditions noted are these: for off-taste suppressing effect: Japanese noodle soup base solution, potassium chloride 0.1 g; for intensity of off-tastes (bitter taste, metallic taste, harsh taste, astringent taste) derived from potassium chloride: base solution of Table 18. The method, then:
Potassium chloride (0.1 g) was added to a commercially available Japanese noodle soup base (manufactured by Yamaki Co., Ltd.) (11.1 g), and dissolved by adding hot water ([…]) to prepare a base solution.
Each compound shown in the following Table 18 was added to the base solution prepared above so as to achieve the concentration (addition concentration) shown in the following Table 18 to prepare each evaluation sample.
Based on the following evaluation criteria, a panel of two experts determined by consensus the intensity of off-tastes (bitter taste, metallic taste, harsh taste, astringent taste) derived from potassium chloride in each evaluation sample, by reference to each potassium chloride aqueous solution adjusted to 0.1 wt % or 0.05 wt %.

Assay [2] in a line: Sensory evaluation in ramen noodle soup solution with potassium chloride (Experimental Example 3). The conditions noted are these: for off-taste suppressing effect: Ramen noodle soup solution with 0.8 wt % potassium chloride; for intensity of off-tastes (bitter taste, metallic taste, harsh taste, astringent taste) derived from potassium chloride: base solutions of Tables 15 to 17 (ramen noodle soup, chicken broth, potage). The method, then:
(§1) As shown in the following (1) to (3) below, 0.8 wt % of potassium chloride was added to a food base powder corresponding to 0.5 wt % of sodium chloride to prepare each base solution having an off-taste derived from potassium chloride.
Potassium chloride (0.8 g) was added to a soup powder (1.1 g) of a commercially available instant ramen noodle (manufactured by SANYO FOODS Co., Ltd., trade name “Sapporo Ichiban Shouyuaji”), hot water (98.1 g) was added to dissolve the mixture to prepare a base solution (ramen noodle soup solution).
(§2) Each compound shown in the following Tables 15 to 17 was added to each base solution (ramen noodle soup solution, chicken broth solution, potage solution) so as to achieve the concentration (addition concentration) shown in the following Tables 15 to 17 to prepare each evaluation sample.
(§3) By a method similar to that in Experimental Example 1, a panel of two experts determined the intensity of off-tastes (bitter taste, metallic taste, harsh taste, astringent taste) derived from potassium chloride in each evaluation sample.

Assay [3] in a line: Sensory evaluation in Japanese noodle soup base solution with potassium chloride (0.2 g) (Experimental Example 5). The settings on record: for off-taste suppressing effect: Japanese noodle soup base solution, potassium chloride 0.2 g; for intensity of off-tastes (bitter taste, metallic taste, harsh taste, astringent taste) derived from potassium chloride: base solution of Table 19. The method, then:
Potassium chloride (0.2 g) was added to a commercially available Japanese noodle soup base (manufactured by Yamaki Co., Ltd.) (11.1 g), and dissolved by adding hot water (88.7 g) to prepare a base solution.
Each compound shown in the following Table 19 was added to the base solution prepared above so as to achieve the concentration (addition concentration) shown in the following Table 19 to prepare each evaluation sample.
Based on the following evaluation criteria, a panel of two experts determined by consensus the intensity of off-tastes (bitter taste, metallic taste, harsh taste, astringent taste) derived from potassium chloride in each evaluation sample, by reference to each potassium chloride aqueous solution adjusted to 0.2 wt %, 0.15 wt % or 0.1 wt %.

The nature of assay [4]: Sensory evaluation in potage solution with potassium chloride (Experimental Example 3). The conditions noted are these: Potage solution with 0.8 wt % potassium chloride. The method, then: as §1
Potassium chloride (0.8 g) was added to a commercially available powdered instant potage (manufactured by Ajinomoto Co., Inc., trade name “Knorr (registered trade mark) Cup Soup Potage”) (7.1 g), hot water (92.1 g) was added to dissolve the mixture to prepare a base solution (potage solution).
as §2, §3

Setting [5] is: addition concentration 1000 weight ppb (1000 weight ppm with respect to potassium chloride).
Setting [6] is: addition concentration 2000 weight ppb (2000 weight ppm with respect to potassium chloride).
The mark [7] stands for this setting: addition concentration 100 ppb (12.5 weight ppm with respect to potassium chloride).
Where [8] appears, read: addition concentration 100 weight ppb (50 weight ppm with respect to potassium chloride).
Where [9] appears, read: addition concentration 10 ppb (1.25 weight ppm with respect to potassium chloride).
Setting [10] is: addition concentration 1 ppm (125 weight ppm with respect to potassium chloride).

In the case of `CC(=O)c1ccc(C)o1` [2-acetyl-5-methylfuran], the off-taste suppressing effect entry is “+ (intensity of the same level as potassium chloride aqueous solution with potassium chloride concentration of not less than 0.05 wt % and less than 0.1 wt %)” in assay [1] (setting [5]); “++ (intensity of the same level as potassium chloride aqueous solution with potassium chloride concentration of less than 0.05 wt %)” in assay [1] (setting [6]). The “intensity of off-tastes (bitter taste, metallic taste, harsh taste, astringent taste) derived from potassium chloride” value (shortened to “intensity of off-tastes”) in assay [1] is reported as “decreased”.

For `CC(=O)c1ccco1` [2-acetylfuran], the off-taste suppressing effect result was “+++ (intensity of the same level as potassium chloride aqueous solution with potassium chloride concentration of not less than 0.65 wt % and less than 0.7 wt %)” in assay [2] (setting [7]); “++ (intensity of the same level as potassium chloride aqueous solution with potassium chloride concentration of not less than 0.1 wt % and less than 0.15 wt %)” in assay [3] (setting [8]); “++ (intensity of the same level as potassium chloride aqueous solution with potassium chloride concentration of not less than 0.7 wt % and less than 0.75 wt %)” in assay [4] (setting [7]). Moreover, the “intensity of off-tastes” value in assay [2] and in assay [3] was “decreased” each time.

`CC1OCCC1=O` (stereo not shown) [2-methyltetrahydrofuran-3-one]: the off-taste suppressing effect result in assay [3] (setting [8]) was “+ (intensity of the same level as potassium chloride aqueous solution with potassium chloride concentration of not less than 0.15 wt % and less than 0.2 wt %)”. In addition, the “intensity of off-tastes” value in assay [3] is listed as “decreased”.

Take `CC1=C(O)C(=O)CC1` [cyclotene]: the off-taste suppressing effect entry in assay [2] (setting [9]) was “+++ (intensity of the same level as potassium chloride aqueous solution with potassium chloride concentration of not less than 0.65 wt % and less than 0.7 wt %)”; in assay [3] (addition concentration 25 weight ppb (12.5 weight ppm with respect to potassium chloride)) it was “+++ (intensity of the same level as potassium chloride aqueous solution with potassium chloride concentration of less than 0.1 wt %)”; in assay [4] (setting [9]), “+++ (intensity of the same level as potassium chloride aqueous solution with potassium chloride concentration of not less than 0.65 wt % and less than 0.7 wt %)”. In addition, the “intensity of off-tastes” value in assay [2] and in assay [3] was “decreased” each time.

As to `O=Cc1ccco1` [furfural, Furfural], the off-taste suppressing effect entry is “++ (intensity of the same level as potassium chloride aqueous solution with potassium chloride concentration of not less than 0.7 wt % and less than 0.75 wt %)” in assay [2] (setting [9]); “+++ (intensity of the same level as potassium chloride aqueous solution with potassium chloride concentration of less than 0.1 wt %)” in assay [3] (addition concentration 50 weight ppb (25 weight ppm with respect to potassium chloride)); “++ (intensity of the same level as potassium chloride aqueous solution with potassium chloride concentration of not less than 0.7 wt % and less than 0.75 wt %)” in assay [4] (setting [9]). The “intensity of off-tastes” value in assay [2] and in assay [3] was “decreased” in each case.

As for `CCC(=O)O` [propionic acid], the off-taste suppressing effect entry was “++ (intensity of the same level as potassium chloride aqueous solution with potassium chloride concentration of not less than 0.7 wt % and less than 0.75 wt %)” in assay [2] (setting [10]); “++ (intensity of the same level as potassium chloride aqueous solution with potassium chloride concentration of not less than 0.1 wt % and less than 0.15 wt %)” in assay [3] (addition concentration 1000 weight ppb (500 weight ppm with respect to potassium chloride)); “+ (intensity of the same level as potassium chloride aqueous solution with potassium chloride concentration of not less than 0.05 wt % and less than 0.1 wt %)” in assay [1] (setting [5]); “++ (intensity of the same level as potassium chloride aqueous solution with potassium chloride concentration of less than 0.05 wt %)” in assay [1] (setting [6]); “++ (intensity of the same level as potassium chloride aqueous solution with potassium chloride concentration of not less than 0.7 wt % and less than 0.75 wt %)” in assay [4] (setting [10]). Further, the “intensity of off-tastes” value in assay [2], in assay [3] and in assay [1] was “decreased” throughout.
